Reference: patent US20220274979A1 (Bayer Pharma Aktiengesellschaft, priority 2018, published 2022)
Read-outs that look alike come from different tables or passages of the source.

Tests used:
[1] = molecular target: T1, hK-RasG12C - hSOS1 interaction (Homo sapiens, UniProt Q07889); assay: Biochemical Assay 1: hK-RasG12C interaction assay with hSOS1 (HTRF); format: binding; conditions: for inhibition at 20 µM: read-out: Assay 1 (hKRAS, hSOS Interaction) activity (expressed as IC50, or as % inhibition at 20 μM)
T1 construct: hSOS1 (amino acid 564-1049); made in house; host or cells: E. coli BL21 (DE3)
T1 sequence (Q07889 with tags, fused parts or gaps): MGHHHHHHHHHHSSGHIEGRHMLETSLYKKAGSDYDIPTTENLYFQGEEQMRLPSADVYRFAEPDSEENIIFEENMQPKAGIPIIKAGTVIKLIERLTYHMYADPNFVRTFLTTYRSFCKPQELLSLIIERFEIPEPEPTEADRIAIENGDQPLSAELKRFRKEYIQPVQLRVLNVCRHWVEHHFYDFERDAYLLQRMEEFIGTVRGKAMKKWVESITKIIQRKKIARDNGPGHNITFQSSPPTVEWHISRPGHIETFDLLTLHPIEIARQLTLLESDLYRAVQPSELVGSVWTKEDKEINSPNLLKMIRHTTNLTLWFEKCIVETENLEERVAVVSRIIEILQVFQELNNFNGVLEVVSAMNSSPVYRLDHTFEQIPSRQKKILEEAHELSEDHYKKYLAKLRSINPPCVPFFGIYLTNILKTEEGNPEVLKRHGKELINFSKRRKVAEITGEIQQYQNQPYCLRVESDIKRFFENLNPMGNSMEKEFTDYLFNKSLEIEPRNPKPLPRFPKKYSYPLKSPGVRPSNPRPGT
Method: Biochemical Assay 1: hK-RasG12C Interaction Assay with hSOS1
This assay quantifies the equilibrium interaction of human SOS1 (hSOS1) with human K-Ras^G12C (hK-RasG12C). Detection of the interaction is achieved by measuring homogenous time-resolved fluorescence resonance energy transfer (HTRF) from antiGST-Europium (FRET donor) bound to GST-K-RasG12C to anti-6His-XL665 bound to His-tagged hSOS1 (FRET-acceptor).
The assay buffer contained 5 mM HEPES pH 7.4 (Applichem), 150 mM NaCl (Sigma), 10 mM EDTA (Promega), 1 mM DTT (Thermofisher), 0.05% BSA Fraction V, pH 7.0, (ICN Biomedicals), 0.0025% (v/v) Igepal (Sigma) and 100 mM KF (FLUKA).
Concentrations of protein batches used were optimized to be within the linear range of the HTRF signal. A Ras working solution was prepared in assay buffer containing typically 10 nM GST-hK-RasG12C and 2 nM antiGST-Eu(K) (Cisbio, France). A SOS1 working solution was prepared in assay buffer containing typically 20 nM His-hSOS1 and 10 nM anti-6His-XL665 (Cisbio, France). An inhibitor control solution was prepared in assay buffer containing 10 nM anti-6His-XL665 without hSOS1.
Fifty nl of a 100-fold concentrated solution of the test compound in DMSO were transferred into a black microtiter test plate (384 or 1536, Greiner Bio-One, Germany) For this, either a Hummingbird liquid handler (Digilab, Mass., USA) or an Echo acoustic system (Labcyte, Calif., USA) was used.
All steps of the assay were performed at 20° C. A volume of 2.5 μl of the Ras working solution was added to all wells of the test plate using a Multidrop dispenser (Thermo Labsystems). After […] preincubation, 2.5 μl of the SOS1 working solution were added to all wells except for those wells at the side of the test plate that were subsequently filled with 2.5 μl of the inhibitor control solution. After […] incubation the fluorescence was measured with a Pherastar (BMG, Germany) using the HTRF module (excitation 337 nm, emission 1:620 nm, emission 2:665 nm).
IC50 values were calculated by 4-Parameter fitting using a commercial software package (Genedata Screener, Switzerland).

[2] = molecular target: T2, Epidermal Growth Factor Receptor (EGFR) (Homo sapiens, UniProt P00533); assay: EGFR kinase assay (TR-FRET); format: biochemical; conditions: 10 μM ATP; read-out: EGFR kinase inhibition IC50
T2 construct: purchased Sigma-Aldrich E3641
Description: EGFR inhibitory activity of compounds of the present invention was quantified employing the TR-FRET based EGFR assay as described in the following paragraphs.
Epidermal Growth Factor Receptor (EGFR) affinity purified from human carcinoma A431 cells (Sigma-Aldrich, # E3641) was used as kinase. As substrate for the kinase reaction the biotinylated peptide biotin-Ahx-[…] (SEQ ID NO: 8, C-terminus in amid form) was used which can be purchased e.g. form the company Biosyntan GmbH (Berlin-Buch, Germany).
For the assay 50 nL of a 100 fold concentrated solution of the test compound in DMSO was pipetted into a black low volume 384 well microtiter plate (Greiner Bio-One, Frickenhausen, Germany), 2 μL of a solution of EGFR in aqueous assay buffer [50 mM Hepes/HCl pH 7.0, 1 mM MgCl2, 5 mM MnCl2, 0.5 mM activated sodium ortho-vanadate, 0.005% (v/v) Tween-20]were added and the mixture was incubated for […] at 22° C. to allow pre-binding of the test compounds to the enzyme before the start of the kinase reaction. Then the kinase reaction was started by the addition of 3 μL of a solution of adenosine-tri-phosphate (ATP, 16.7 μM=>final conc. in the 5 μL assay volume is 10 μM) and substrate (1.67 μM =>final conc. in the 5 μL assay volume is 1μM) in assay buffer and the resulting mixture was incubated for a reaction time of […] at 22° C. The concentration of EGFR was adjusted depending of the activity of the enzyme lot and was chosen appropriate to have the assay in the linear range, typical concentration were about 3 U/ml. The reaction was stopped by the addition of 5 μl of a solution of HTRF detection reagents (0.1 μM streptavidine-XL665 [Cis Biointernational]and 1 nM PT66-Tb-Cryptate, an terbium-cryptate labelled anti-phospho-tyrosine antibody from Cis Biointernational [instead of the PT66-Tb-cryptate PT66-Eu-Chelate from Perkin Elmer can also be used]) in an aqueous EDTA-solution (80 mM EDTA, 0.2% (w/v) bovine serum albumin in 50 mM HEPES pH 7.5).
The resulting mixture was incubated 1 h at 22° C. to allow the binding of the biotinylated phosphorylated peptide to the streptavidine-XL665 and the PT66-Eu-Chelate. Subsequently the amount of phosphorylated substrate was evaluated by measurement of the resonance energy transfer from the PT66-Tb-Cryptate to the streptavidine-XL665. Therefore, the fluorescence emissions at 620 nm and 665 nm after excitation at 337 nm were measured in a HTRF reader, e.g. a Pherastar (BMG Labtechnologies, Offenburg, Germany) or a Viewlux (Perkin-Elmer). The ratio of the emissions at 665 nm and at […] was taken as the measure for the amount of phosphorylated substrate.

T2 sequence (P00533 25-1210): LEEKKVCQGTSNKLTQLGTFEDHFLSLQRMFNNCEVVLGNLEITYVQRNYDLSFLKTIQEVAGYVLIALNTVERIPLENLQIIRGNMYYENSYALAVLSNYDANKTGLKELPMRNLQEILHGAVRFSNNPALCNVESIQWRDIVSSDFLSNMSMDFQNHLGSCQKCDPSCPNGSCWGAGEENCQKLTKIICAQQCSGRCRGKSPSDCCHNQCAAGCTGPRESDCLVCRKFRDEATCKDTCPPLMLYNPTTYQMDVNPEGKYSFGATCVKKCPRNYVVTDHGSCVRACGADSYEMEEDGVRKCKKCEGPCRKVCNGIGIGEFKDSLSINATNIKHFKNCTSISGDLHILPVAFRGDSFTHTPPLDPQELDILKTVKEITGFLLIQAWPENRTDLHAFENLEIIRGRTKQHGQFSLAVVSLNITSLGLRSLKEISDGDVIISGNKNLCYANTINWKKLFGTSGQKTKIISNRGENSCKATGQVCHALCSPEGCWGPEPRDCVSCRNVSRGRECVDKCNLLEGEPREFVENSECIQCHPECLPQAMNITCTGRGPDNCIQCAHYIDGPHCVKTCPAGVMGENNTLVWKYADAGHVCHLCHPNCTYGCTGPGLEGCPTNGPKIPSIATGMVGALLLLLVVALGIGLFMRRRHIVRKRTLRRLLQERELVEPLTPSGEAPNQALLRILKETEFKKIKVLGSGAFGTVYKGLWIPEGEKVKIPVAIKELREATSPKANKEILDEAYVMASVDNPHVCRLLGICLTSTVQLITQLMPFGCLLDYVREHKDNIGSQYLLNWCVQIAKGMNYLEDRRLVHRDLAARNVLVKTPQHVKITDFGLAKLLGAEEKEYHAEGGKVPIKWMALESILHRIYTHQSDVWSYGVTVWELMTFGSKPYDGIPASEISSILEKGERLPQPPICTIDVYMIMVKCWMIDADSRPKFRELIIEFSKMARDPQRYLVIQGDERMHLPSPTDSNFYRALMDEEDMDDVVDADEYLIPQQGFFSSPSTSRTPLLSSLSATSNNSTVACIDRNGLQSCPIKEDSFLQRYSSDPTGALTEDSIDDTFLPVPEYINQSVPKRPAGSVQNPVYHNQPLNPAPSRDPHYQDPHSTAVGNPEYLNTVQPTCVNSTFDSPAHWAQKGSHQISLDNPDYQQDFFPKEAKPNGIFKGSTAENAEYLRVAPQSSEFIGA

## Cc1nc(NC(C)c2ccc(-c3ccccc3CN(C)C)s2)c2cc(OCCO)ncc2n1 (stereo not shown) [Example 74, 2-[(4-{[1-(5-{2-[(dimethylamino)methyl]phenyl}thiophen-2-yl)ethyl]amino}-2-methylpyrido[3,4-d]pyrimidin-6-yl)oxy]ethanol]
[1]; values expressed as IC50
  IC50: 55.2 nM
[2]
  IC50: > 20000 nM

## CSc1cc2c(NC(C)c3ccc(-c4ccccc4CN(C)C)s3)nc(C)nc2cn1 (stereo not shown) [Example 59, N-[1-(5-{2-[(dimethylamino)methyl]phenyl}thiophen-2-yl)ethyl]-2-methyl-6-(methylsulfanyl)pyrido[3,4-d]pyrimidin-4-amine]
[1]; values expressed as IC50
  IC50: 66.2 nM
[2]
  IC50: > 20000 nM

## Cc1nc(N[C@H](C)c2cccc(Br)c2)c2nc(N(C)C)ncc2n1 [Example 21]
[1]
  inhibition at 20 µM: 26.3%
[2]
  IC50: > 20000 nM

## Cc1nc(NC(C)c2ccc(-c3ccccc3CN(C)C)s2)c2cc(N3CC(NS(=O)(=O)Cc4ccccc4)C3)ncc2n1 (stereo not shown) [Example 95, N-[1-(4-{[1-(5-{2-[(dimethylamino)methyl]phenyl}thiophen-2-yl)ethyl]amino}-2-methylpyrido[3,4-d]pyrimidin-6-yl)azetidin-3-yl]-1-phenylmethanesulfonamide]
[1]; values expressed as IC50
  IC50: 107 nM
[2]
  IC50: > 20000 nM

## Cc1nc(NC(C)c2ccc(-c3ccccc3CN(C)C)s2)c2cc(NCC3CCNC(=O)C3)ncc2n1 (stereo not shown) [Example 86, 4-{[(4-{[1-(5-{2-[(dimethylamino)methyl]phenyl}thiophen-2-yl)ethyl]amino}-2-methylpyrido[3,4-d]pyrimidin-6-yl)amino]methyl}piperidin-2-one]
[1]; values expressed as IC50
  IC50: 119 nM
[2]
  IC50: > 20000 nM

## Cc1nc(NC(C)c2ccc(-c3ccccc3CN(C)C)s2)c2cc(N3CC(NC(=O)CCCn4c(-c5ccccn5)nc(C)c4C)C3)ncc2n1 (stereo not shown) [Example 87, N-[1-(4-{[1-(5-{2-[(dimethylamino)methyl]phenyl}thiophen-2-yl)ethyl]amino}-2-methylpyrido[3,4-d]pyrimidin-6-yl)azetidin-3-yl]-4-[4,5-dimethyl-2-(pyridin-2-yl)-1H-imidazol-1-yl]butanamide]
[1]; values expressed as IC50
  IC50: 71 nM
[2]
  IC50: > 20000 nM

## CC(=O)NCCOc1cc2c(N[C@H](C)c3cccc(Br)c3)nc(C)nc2cn1 [Example 62, N-{2-[(4-{[(1R)-1-(3-bromophenyl)ethyl]amino}-2-methylpyrido[3,4-d]pyrimidin-6-yl)oxy]ethyl}acetamide]
[1]; values expressed as IC50
  IC50: 291 nM
[2]
  IC50: > 20000 nM

## Cc1nc(NC(C)c2ccc(-c3ccccc3CN(C)C)s2)c2cc(N3CC(NC(=O)C4CCCCC4)C3)ncc2n1 (stereo not shown) [Example 90, N-[1-(4-{[1-(5-{2-[(dimethylamino)methyl]phenyl}thiophen-2-yl)ethyl]amino}-2-methylpyrido[3,4-d]pyrimidin-6-yl)azetidin-3-yl]cyclohexanecarboxamide]
[1]; values expressed as IC50
  IC50: 63 nM
[2]
  IC50: > 20000 nM

## COc1ccc2nc(C)nc(N[C@H](C)c3cccc(Br)c3)c2n1 [Example 28, N-[(1R)-1-(3-bromophenyl)ethyl]-6-methoxy-2-methylpyrido[3,2-d]pyrimidin-4-amine]
[1]
  inhibition at 20 µM: 49.8%
[2]
  IC50: > 20000 nM

## Cc1nc(N[C@H](C)c2cccc(Br)c2)c2nc(OCc3ccccc3)ccc2n1 [Example 33, 6-(benzyloxy)-N-[(1R)-1-(3-bromophenyl)ethyl]-2-methylpyrido[3,2-d]pyrimidin-4-amine]
[1]
  inhibition at 20 µM: 29.3%
[2]
  IC50: > 20000 nM

## Cc1nc(N[C@H](C)c2cccc(Br)c2)c2cc(NCCn3cccn3)ncc2n1 [Example 49, N4-[(1R)-1-(3-bromophenl)pethyl]-2-methyl-N6-[2-(1H-pyrazol-1-yl)ethyl]pyrido[3,4-d]pyrimidine-4,6-diamine]
[1]; values expressed as IC50
  IC50: 1210 nM
[2]
  IC50: > 20000 nM

## Cc1nc(NC(C)c2ccc(-c3ccccc3CN(C)C)s2)c2cc(C3(O)CCN(C)C3=O)ncc2n1 (mixture of isomers) [Example 85, 3-(4-{[1-(5-{2-[(dimethylamino)methyl]phenyl}thiophen-2-yl)ethyl]amino}-2-methylpyrido[3,4-d]pyrimidin-6-yl)-3-hydroxy-1-methylpyrrolidin-2-one]
[1]
  IC50: 83.4 nM
[2]
  IC50: > 20000 nM

## CC(=O)NCCNc1cc2c(N[C@H](C)c3cccc(Br)c3)nc(C)nc2cn1 [Example 44, N-{2-[(4-{[(1R)-1-(3-bromophenyl)ethyl]amino}-2-methylpyrido[3,4-d]pyrimidin-6-yl)amino]ethyl}acetamide]
[1]; values expressed as IC50
  IC50: 985 nM
[2]
  IC50: > 20000 nM

## COc1cc2c(N[C@H](C)c3ccc(F)c(C4CC4)c3)nc(C)nc2cn1 [Example 12]
[1]; values expressed as IC50
  IC50: 5840 nM
[2]
  IC50: > 20000 nM

## Cc1nc(N[C@H](C)c2cccc(Br)c2)c2cc(OCCCN(C)C)ncc2n1 [Example 70, N-[(1R)-1-(3-bromophenyl)ethyl]-6-[3-(dimethylamino)propoxy]-2-methylpyrido[3,4-d]pyrimidin-4-amine]
[1]; values expressed as IC50
  IC50: 409 nM
[2]
  IC50: > 20000 nM

## CCOc1ccc2nc(C)nc(N[C@H](C)c3cccc(Br)c3)c2n1 [Example 29, N-[(1R)-1-(3-bromophenyl)ethyl]-6-ethoxy-2-methylpyrido[3,2-d]pyrimidin-4-amine]
[1]; values expressed as IC50
  IC50: 17400 nM
[2]
  IC50: > 20000 nM

## Cc1nc(NC(C)c2ccc(-c3ccccc3CN(C)C)s2)c2cc(OC3CCS(=N)(=O)CC3)ncc2n1 (stereo not shown) [Example 77, N-[1-(5-{2-[(dimethylamino)methyl]phenyl}-2-thienyl)ethyl]-6-[(1-imino-1-oxidohexahydro-1lambda4-thiopyran-4-yl)oxy]-2-methylpyrido[3,4-d]pyrimidin-4-amine]
[1]; values expressed as IC50
  IC50: 49.8 nM
[2]
  IC50: > 20000 nM
